Test results reported in patent publication US20230158157A1, “POTENT AND SELECTIVE DEGRADERS OF ALK” (DANA-FARBER CANCER INSTITUTE, INC., priority 2020, published 2023).
Read-outs that look alike come from different tables or passages of the source. One block for each compound: values may come before it.

Experiments:
[1] = target: T1, EML4-ALK (Homo sapiens, UniProt Q9UM73); test: EML4-ALK HiBit degradation assay in CRISPR-tagged H3122 cells (Nano-Glo HiBit Lytic Detection); format: cell-based
T1 construct: endogenous in cells; host or cells: H3122 (NSCLC), single-cell clone after CRISPR knock-in of HiBit; the other entry of the earlier key: EML4 (Q9HC35, Echinoderm microtubule-associated protein-like 4)
Experimental: (§1) NSCLC cell line H3122 was subjected to CRISPR to express EML4-ALK with HiBit-tag on its c-terminal. Single-cell clone was selected and expanded for the following assays that monitor endogenous EML4-ALK level in high throughput manner. Cells were seeded in 384-well white Tissue-culture plates at 3000 cells/well for 8 hours. […] HiBit signal was assessed using Nano-Glo® HiBit Lytic Detection System (Promega™). Degrader-treated was normalized by DMSO-treated controls and DC50 and Dmax were generated by GraphPad Prism® 8.0.
as §1, with “its c-terminus. A single-cell” for “its c-terminal. Single-cell”, “Degrader-treated cells were” for “Degrader-treated was”
as §1, with “its C-terminus. A single-cell” for “its c-terminal. Single-cell”, “Degrader-treated cells were” for “Degrader-treated was”

[2] = system: H3122 cells; test: CTG; format: cell-based
[3] = Table 2, first DC50 column, H3122 EML4-ALK-HiBit, 16 hours, read-out: Degradation DC50
[4] = Table 2, average DC50, read-out: Degradation Avg. DC50
[5] = NCI-H3122, Table 1, first Dmax column, H3122 EML4-ALK-HiBit, 16 hours, read-out: Degradation Dmax
[6] = NCI-H3122, Table 1, second Dmax column, H3122 EML4-ALK-HiBit, 16 hours, read-out: Degradation Dmax
[7] = Table 1, first DC50 column, H3122 EML4-ALK-HiBit, 16 hours, read-out: Degradation DC50
[8] = Table 1, second DC50 column, H3122 EML4-ALK-HiBit, 16 hours, read-out: Degradation DC50
[9] = Table 1, average DC50, read-out: Degradation Avg. DC50
[10] = Homo sapiens, NCI-H3122, Table 1, read-out: CTG IC50
[11] = NCI-H3122, Table 1, average Dmax, read-out: Degradation Avg. Dmax
[12] = NCI-H3122, Table 2, first Dmax column, H3122 EML4-ALK-HiBit, 16 hours, read-out: Degradation Dmax
[13] = NCI-H3122, Table 2, average Dmax, read-out: Degradation Avg. Dmax
[14] = Homo sapiens, NCI-H3122, Table 2, read-out: CTG IC50
[15] = NCI-H3122, Table 2, second Dmax column, H3122 EML4-ALK-HiBit, 16 hours, read-out: Degradation Dmax
[16] = Table 2, second DC50 column, H3122 EML4-ALK-HiBit, 16 hours, read-out: Degradation DC50

T1 sequence (Q9UM73 with tags, fused parts or gaps): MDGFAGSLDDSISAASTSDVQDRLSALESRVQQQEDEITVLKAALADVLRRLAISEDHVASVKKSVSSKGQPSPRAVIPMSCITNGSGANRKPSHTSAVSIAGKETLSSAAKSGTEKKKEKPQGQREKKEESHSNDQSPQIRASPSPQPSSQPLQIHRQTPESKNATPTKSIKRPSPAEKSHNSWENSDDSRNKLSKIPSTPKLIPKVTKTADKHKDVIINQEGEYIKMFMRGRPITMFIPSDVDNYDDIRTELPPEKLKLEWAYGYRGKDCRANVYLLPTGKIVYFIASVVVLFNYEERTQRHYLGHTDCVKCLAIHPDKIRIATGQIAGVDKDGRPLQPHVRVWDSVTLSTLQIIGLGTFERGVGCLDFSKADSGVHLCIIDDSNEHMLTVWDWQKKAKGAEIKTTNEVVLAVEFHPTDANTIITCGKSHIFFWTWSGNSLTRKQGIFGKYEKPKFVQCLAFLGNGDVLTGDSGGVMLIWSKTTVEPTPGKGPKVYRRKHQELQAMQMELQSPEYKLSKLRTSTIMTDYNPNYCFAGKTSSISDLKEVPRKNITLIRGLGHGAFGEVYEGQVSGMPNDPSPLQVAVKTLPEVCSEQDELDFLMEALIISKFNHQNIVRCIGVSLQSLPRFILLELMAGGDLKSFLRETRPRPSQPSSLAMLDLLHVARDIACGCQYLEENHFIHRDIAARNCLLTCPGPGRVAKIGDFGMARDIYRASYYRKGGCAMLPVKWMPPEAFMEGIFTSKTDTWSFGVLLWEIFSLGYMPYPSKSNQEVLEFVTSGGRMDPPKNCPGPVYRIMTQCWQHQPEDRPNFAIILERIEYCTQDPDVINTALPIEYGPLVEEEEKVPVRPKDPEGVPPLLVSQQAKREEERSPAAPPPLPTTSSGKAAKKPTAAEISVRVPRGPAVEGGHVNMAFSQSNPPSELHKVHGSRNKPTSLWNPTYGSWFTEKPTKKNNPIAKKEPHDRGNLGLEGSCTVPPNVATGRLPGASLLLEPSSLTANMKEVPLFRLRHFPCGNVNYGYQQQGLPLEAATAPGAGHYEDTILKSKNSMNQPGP

Structure (SMILES): COc1cc(CCNCCOCCOCCOCCC(=O)N[C@H](C(=O)N2C[C@H](O)C[C@H]2C(=O)N[C@@H](C)c2ccc(-c3scnc3C)cc2)C(C)(C)C)c(C)cc1Nc1ncc(Cl)c(Nc2ccccc2S(=O)(=O)C(C)C)n1 [Compound 47]
Dmax [1, 5]: 81.9%
Dmax [1, 6]: 95.6%
Dmax [1, 11]: 88.7%
DC50 [1, 7]: 1100 nM
DC50 [1, 8]: 347 nM
DC50 [1, 9]: 723 nM
IC50 [2, 10]: 285 nM

Structure (SMILES): COc1cc(CCNCCCCCSC(C)(C)C(NC(C)=O)C(=O)N2C[C@H](O)C[C@H]2C(=O)N[C@@H](C)c2ccc(-c3scnc3C)cc2)c(C)cc1Nc1ncc(Cl)c(Nc2ccccc2P(C)(C)=O)n1 (stereo partly drawn) [Compound 73]
Dmax [1, 12]: 59.6%
Dmax [1, 15]: 62%
Dmax [1, 13]: 60.8%
DC50 [1, 3]: 3270 nM
DC50 [1, 16]: 1180 nM
DC50 [1, 4]: 2230 nM
IC50 [2, 14]: 788 nM

Structure (SMILES): COc1cc(CCN(C)C(=O)CCCCCNc2cccc3c2C(=O)N(C2CCC(=O)NC2=O)C3=O)c(C)cc1Nc1ncc(Cl)c(Nc2ccccc2P(C)(C)=O)n1 (stereo not drawn) [Compound 65]
Dmax [1, 12]: 26.2%
Dmax [1, 13]: 26.2%
DC50 [1, 3]: 2560 nM
DC50 [1, 4]: 2560 nM
IC50 [2, 14]: 1100 nM

Structure (SMILES): COc1cc(CCN(C)C(=O)CCCC#Cc2cccc3c2C(=O)N(C2CCC(=O)NC2=O)C3=O)c(C)cc1Nc1ncc(Cl)c(Nc2ccccc2S(=O)(=O)C(C)C)n1 (stereo not drawn) [compound 9, N-(4-((5-chloro-4-((2-(isopropylsulfonyl)phenyl)amino)pyrimidin-2-yl)amino)-5-methoxy-2-methylphenethyl)-6-(2-(2,6-dioxopiperidin-3-yl)-1,3-dioxoisoindolin-4-yl)-N-methylhex-5-ynamide]
Dmax [1, 5]: 54.1%
Dmax [1, 11]: 54.1%
DC50 [1, 7]: 265 nM
DC50 [1, 9]: 265 nM
IC50 [2, 10]: 122 nM

Structure (SMILES): COc1cc(CCN(C)C(=O)CCCCCCCC(=O)N[C@H](C(=O)N2C[C@H](O)C[C@H]2C(=O)N[C@@H](C)c2ccc(-c3scnc3C)cc2)C(C)(C)C)c(C)cc1Nc1ncc(Cl)c(Nc2ccccc2P(C)(C)=O)n1 [compound 69, N^1-(4-((5-chloro-4-((2-(dimethylphosphoryl)phenyl)amino)pyrimidin-2-yl)amino)-5-methoxy-2-methylphenethyl)-N^9-((S)-1-((2S,4R)-4-hydroxy-2-(((S)-1-(4-(4-methylthiazol-5-yl)phenyl)ethyl)carbamoyl)pyrrolidin-1-yl)-3,3-dimethyl-1-oxobutan-2-yl)-N^1-methylnonanediamide]
IC50 [2, 14]: 477 nM

Structure (SMILES): COc1cc(CCN(C)C(=O)CCCCCCC(=O)N[C@H](C(=O)N2C[C@H](O)CC2C(=O)N[C@@H](C)c2ccc(-c3scnc3C)cc2)C(C)(C)C)c(C)cc1Nc1ncc(Cl)c(Nc2ccccc2P(C)(C)=O)n1 (stereo partly drawn) [compound 70, N^1-(4-((5-chloro-4-((2-(dimethylphosphoryl)phenyl)amino)pyrimidin-2-yl)amino)-5-methoxy-2-methylphenethyl)-N^8-((S)-1-((2S,4R)-4-hydroxy-2-(((S)-1-(4-(4-methylthiazol-5-yl)phenyl)ethyl)carbamoyl)pyrrolidin-1-yl)-3,3-dimethyl-1-oxobutan-2-yl)-N′-methyloctanediamide]
IC50 [2, 14]: 371 nM

Structure (SMILES): COc1cc(CCN(C)C(=O)CCOCCOCCNc2cccc3c2C(=O)N(C2CCC(=O)NC2=O)C3=O)c(C)cc1Nc1ncc(Cl)c(Nc2ccccc2P(C)(C)=O)n1 (stereo not drawn) [Compound 67]
IC50 [2, 14]: 2290 nM

Structure (SMILES): COc1cc(CCNCCCCCC#Cc2cccc3c2C(=O)N(C2CCC(=O)NC2=O)C3=O)c(C)cc1Nc1ncc(Cl)c(Nc2ccccc2S(=O)(=O)C(C)C)n1 (stereo not drawn) [compound 49, 4-(7-((4-((5-chloro-4-((2-(isopropylsulfonyl)phenyl)amino)pyrimidin-2-yl)amino)-5-methoxy-2-methylphenethyl)amino)hept-1-yn-1-yl)-2-(2,6-dioxopiperidin-3-yl)isoindoline-1,3-dione]
IC50 ([2]; Homo sapiens, NCI-H3122, read-out: CTG IC50): 96.3 nM
IC50 [2, 10]: 66.9 nM

Further lines, results first:

DC50 [1, 3]: 9340 nM
DC50 [1, 4]: 9340 nM
IC50 ([2]; Table 2, read-out: CTG IC50): > 10000 nM
Structure (SMILES): COc1cc(CCN(C)C(=O)CCCNC(=O)COc2cccc3c2C(=O)N(C2CCC(=O)NC2=O)C3=O)c(C)cc1Nc1ncc(Cl)c(Nc2ccccc2P(C)(C)=O)n1 (stereo not drawn) [Compound 57]

Dmax [1, 5]: 68.4%
Dmax [1, 6]: 68.2%
DC50 [1, 7]: 67 nM
DC50 [1, 8]: 57 nM
DC50 [1, 9]: 62 nM
IC50 [2, 10]: 73.6 nM
Structure (SMILES): COc1cc(CCN(C)CCCCCOc2cc(-c3scnc3C)ccc2[C@H](C)NC(=O)[C@@H]2C[C@@H](O)CN2C(=O)[C@@H](NC(C)=O)C(C)(C)C)c(C)cc1Nc1ncc(Cl)c(Nc2ccccc2S(=O)(=O)C(C)C)n1 [Compound 54]

Dmax [1, 12]: 27.8%
Dmax [1, 13]: 27.8%
DC50 [1, 3]: 4380 nM
DC50 [1, 4]: 4380 nM
IC50 [2, 14]: > 10000 nM
Structure (SMILES): COc1cc(CCN(C)C(=O)CCCCCC#Cc2cccc3c2C(=O)N(C2CCC(=O)NC2=O)C3=O)c(C)cc1Nc1ncc(Cl)c(Nc2ccccc2P(C)(C)=O)n1 (stereo not drawn) [Compound 62]

IC50 ([2]; Table 2, read-out: CTG IC50): > 10000 nM
Structure (SMILES): COc1cc(CCN(C)C(=O)CCOCCOCCNC(=O)COc2cccc3c2C(=O)N(C2CCC(=O)NC2=O)C3=O)c(C)cc1Nc1ncc(Cl)c(Nc2ccccc2P(C)(C)=O)n1 (stereo not drawn) [Compound 60]

DC50 [1, 7]: 57 nM
DC50 [1, 8]: 24 nM
DC50 [1, 9]: 41 nM
IC50 ([2]; Table 1, read-out: CTG IC50): 20.6 nM
Structure (SMILES): COc1cc(CCN(C)CCCCCNc2cccc3c2C(=O)N(C2CCC(=O)NC2=O)C3=O)c(C)cc1Nc1ncc(Cl)c(Nc2ccccc2S(=O)(=O)C(C)C)n1 (stereo not drawn) [Compound 50]

Dmax [1, 5]: 68.6%
Dmax [1, 6]: 41.6%
Dmax [1, 11]: 55.1%
DC50 [1, 7]: 392 nM
DC50 [1, 8]: 145 nM
DC50 [1, 9]: 269 nM
IC50 [2, 10]: 149 nM
Structure (SMILES): COc1cc(CCN(C)C(=O)CCCCCCC(=O)N[C@H](C(=O)N2C[C@H](O)C[C@H]2C(=O)N[C@@H](C)c2ccc(-c3scnc3C)cc2)C(C)(C)C)c(C)cc1Nc1ncc(Cl)c(Nc2ccccc2S(=O)(=O)C(C)C)n1 [compound 40, N^1-(4-((5-chloro-4-((2-(isopropylsulfonyl)phenyl)amino)pyrimidin-2-yl)amino)-5-methoxy-2-methylphenethyl)-N^8-((S)-1-((2S,4R)-4-hydroxy-2-(((S)-1-(4-(4-methylthiazol-5-yl)phenyl)ethyl)carbamoyl)pyrrolidin-1-yl)-3,3-dimethyl-1-oxobutan-2-yl)-N^1-methyloctanediamide]

Dmax [1, 12]: 23.6%
Dmax [1, 15]: 49.3%
Dmax [1, 13]: 36.5%
DC50 [1, 3]: 1730 nM
DC50 [1, 16]: 670 nM
DC50 [1, 4]: 1200 nM
IC50 [2, 14]: 1630 nM
Structure (SMILES): COc1cc(CCN(C)C(=O)CCCCCCCCNc2cccc3c2C(=O)N(C2CCC(=O)NC2=O)C3=O)c(C)cc1Nc1ncc(Cl)c(Nc2ccccc2P(C)(C)=O)n1 (stereo not drawn) [Compound 66]

Dmax [1, 12]: 47.1%
Dmax [1, 15]: 47.2%
Dmax [1, 13]: 47.1%
DC50 [1, 3]: 506 nM
DC50 [1, 16]: 480 nM
DC50 [1, 4]: 490 nM
Structure (SMILES): CC[C@@H](NC(=O)[C@@H]1C[C@H](NC(=O)CCCCCCC(=O)N(C)CCc2cc(OC)c(Nc3ncc(Cl)c(Nc4ccccc4P(C)(C)=O)n3)cc2C)CN1C(=O)[C@@H](NC(=O)[C@H](C)NC)C(C)(C)C)c1ccccc1 [Compound 74]

IC50 [2, 14]: > 10000 nM
Structure (SMILES): COc1cc(CCN(C)C(=O)CCCCCNC(=O)COc2cccc3c2C(=O)N(C2CCC(=O)NC2=O)C3=O)c(C)cc1Nc1ncc(Cl)c(Nc2ccccc2P(C)(C)=O)n1 (stereo not drawn) [Compound 58]

IC50 [2, 14]: 301 nM
Structure (SMILES): COc1cc(CCN(C)C(=O)CCCNc2cccc3c2C(=O)N(C2CCC(=O)NC2=O)C3=O)c(C)cc1Nc1ncc(Cl)c(Nc2ccccc2P(C)(C)=O)n1 (stereo not drawn) [Compound 64]

Dmax [1, 12]: 42.1%
DC50 [1, 3]: 381 nM
Structure (SMILES): CC[C@@H](NC(=O)[C@@H]1C[C@H](NC(=O)CCCCCCCC(=O)N(C)CCc2cc(OC)c(Nc3ncc(Cl)c(Nc4ccccc4P(C)(C)=O)n3)cc2C)CN1C(=O)[C@@H](NC(=O)[C@H](C)NC)C(C)(C)C)c1ccccc1 [compound 75, N^1-(4-((5-chloro-4-((2-(dimethylphosphoryl)phenyl)amino)pyrimidin-2-yl)amino)-5-methoxy-2-methylphenethyl)-N^9-((3S,5S)-1-((S)-3,3-dimethyl-2-((S)-2-(methylamino)propanamido)butanoyl)-5-(((R)-1-phenylpropyl)carbamoyl)pyrrolidin-3-yl)-N^1-methylnonanediamide]
